Assay results as given in the Deep4Chem optical property database.
Blank lines part the entries; values can stand above or below the molecule they belong to.

Experiment: solvent given as SMILES

absorption maximum (in C1CCCCC1): 546 nm
SMILES: C(#Cc1cccc2cc(-c3ccccc3)c3cc(-c4cc[b-]5c(c4)c(-c4ccccc4)cc4cccc(C#Cc6ccccc6)[n+]54)cc[b-]3[n+]12)c1ccccc1

absorption maximum (in ClCCl): 319 nm
SMILES: CN(C)c1ccc(N2c3sc4ccccc4c3Sc3sc4ccccc4c32)cc1

absorption maximum (in C1CCOC1): 342 nm
SMILES: c1ccc(-n2c(-c3c(-n4c5ccccc5c5ccccc54)cccc3-n3c4ccccc4c4ccccc43)nc3ccccc32)cc1

absorption maximum (in ClCCl): 370 nm
SMILES: COC(=O)C1=C(C(=O)OC)C2=C[C@H]3c4ccccc4[C@]2([Se]1)c1ccccc13

absorption maximum (in ClC(Cl)Cl): 385 nm
SMILES: N#Cc1ccc(-c2cc(-c3ccc(N4CCCC4)cc3)nc(-c3ccccc3)n2)cc1

absorption maximum (in CCCCCC): 350 nm | absorption maximum (in CO): 349 nm | absorption maximum (in ClCCl): 352 nm
SMILES: C[Si](C)(C)c1ccc2ccc3c([Si](C)(C)C)ccc4ccc1c2c43

absorption maximum (in ClCCl): 392 nm
SMILES: CCCCCCNC(=O)c1sc(-c2ccc(-c3cc(-c4ccc(C(C)(C)C)cc4)c(C(=O)NCCCCCC)s3)s2)cc1-c1ccc(C(C)(C)C)cc1

absorption maximum (in ClCCl): 333 nm
SMILES: c1ccc(-c2nc(-c3ccc(N4c5ccccc5Oc5ccccc54)cc3)nn2-c2ccc(N3c4ccccc4Oc4ccccc43)cc2)nc1

SMILES: CC[N+]1(CC)CN2C(=N1)C(C(=O)O)=Cc1ccccc12
absorption maximum (in CN(C)C=O): 361 nm | absorption maximum (in O): 373 nm

absorption maximum (in C1CCOC1): 351 nm
SMILES: C(=C(c1ccccc1)c1ccccc1)c1ccc(-c2ccc(C=C(c3ccccc3)c3ccccc3)cc2)cc1

absorption maximum (in ClCCl): 403 nm
SMILES: CCCCCCN1C(=O)c2cccc3c(-c4ccc(-c5cc(-c6ccc(OC)cc6)n(-c6ccccc6)n5)s4)ccc(c23)C1=O

SMILES: CCn1c2ccccc2c2cc(-c3cc(-c4ccc5c(c4)c4ccccc4n5CC)nc(N4CCCCC4)n3)ccc21
absorption maximum (in C1CCOC1): 367 nm | absorption maximum (in CCOC(C)=O): 368 nm | absorption maximum (in CN(C)C=O): 370 nm | absorption maximum (in Cc1ccccc1): 369 nm | absorption maximum (in ClCCl): 371 nm

absorption maximum (in ClCCl): 557 nm
SMILES: CC1=C(C2=C(C)C(C)=[N+]3C2=Cc2cc(C)c(C)n2[B-]3(F)F)C2=Cc3cc(C)c(C)n3[B-](F)(F)[N+]2=C1C

SMILES: CN(C)c1ccc(C2=Nc3sc4cc(C(F)(F)F)ccc4[n+]3[B-](F)(F)O2)cc1
absorption maximum (in C1CCOC1): 430 nm | absorption maximum (in CC#N): 427 nm | absorption maximum (in CC(C)=O): 431 nm | absorption maximum (in Cc1ccccc1): 428 nm | absorption maximum (in ClCCl): 431 nm

absorption maximum (in ClCCl): 372 nm
SMILES: C(#Cc1cc(C#Cc2cccs2)c(C#Cc2cccs2)c(C#Cc2cccs2)c1C#Cc1cccs1)c1cccs1

absorption maximum (in CC#N): 452 nm | absorption maximum (in CCCCCC): 492 nm | absorption maximum (in CCOC(C)=O): 464 nm | absorption maximum (in CO): 458 nm | absorption maximum (in ClCCl): 468 nm
SMILES: N#CSc1ccc2n1[B-](F)(F)[N+]1=C(N3CCOCC3)C=CC1=C2c1ccccc1

absorption maximum (in ClC(Cl)Cl): 371 nm
SMILES: CCCCC1(c2ccccc2)Nc2c(-c3ccc(N(C)C)cc3)ccc(-c3ccc(N(C)C)cc3)c2N=C1c1ccccc1 (stereo not given)

SMILES: COC(=O)C(Cc1ccc2oc(-c3ccc(N(C)C)cc3)nc2c1)NC(=O)OC(C)(C)C (stereo not given)
absorption maximum (in C1CCCCC1): 335.1 nm | absorption maximum (in C1CCOC1): 341.8 nm | absorption maximum (in C1COCCO1): 340.8 nm | absorption maximum (in CC1CCCO1): 338.9 nm | absorption maximum (in CC1COC(=O)O1): 345.1 nm | absorption maximum (in CC#N): 343.39 nm | absorption maximum (in CC(C)=O): 343.1 nm | absorption maximum (in CC(C)CC(C)(C)C): 333 nm | absorption maximum (in CC(C)CO): 344.49 nm | absorption maximum (in CC(C)O): 343.9 nm | absorption maximum (in CC(C)OC(C)C): 339.5 nm | absorption maximum (in CC(O)CO): 349.5 nm | absorption maximum (in CCC(C)CC): 333 nm | absorption maximum (in CCCCC): 332.9 nm | absorption maximum (in CCCCCC): 333.6 nm | absorption maximum (in CCCCCCCCC): 334.9 nm | absorption maximum (in CCCCCCCCCC): 334.9 nm | absorption maximum (in CCCCCCCO): 345.7 nm | absorption maximum (in CCCCCCO): 345.6 nm | absorption maximum (in CCCCCO): 342.7 nm | absorption maximum (in CCCCO): 345.9 nm | absorption maximum (in CCO): 346.6 nm | absorption maximum (in CCOC(C)=O): 339.7 nm | absorption maximum (in CCOCC): 338.2 nm | absorption maximum (in CN(C)C=O): 346.5 nm | absorption maximum (in CO): 346.5 nm | absorption maximum (in COCCOC): 343.9 nm | absorption maximum (in CS(C)=O): 348.5 nm | absorption maximum (in Cc1ccccc1): 342 nm | absorption maximum (in Cc1ccccc1C): 341.4 nm | absorption maximum (in ClC(Cl)Cl): 344.6 nm | absorption maximum (in ClCCl): 344.49 nm | absorption maximum (in NC=O): 349.41 nm | absorption maximum (in OC1CCCCC1): 346.5 nm | absorption maximum (in OCCO): 351.9 nm | absorption maximum (in c1ccccc1): 342.99 nm

SMILES: N#CC1=C(c2ccc(-c3cccs3)s2)CCC1
absorption maximum (in C1CCOC1): 364 nm | absorption maximum (in CC#N): 362 nm | absorption maximum (in CCCCCC): 360 nm | absorption maximum (in CCO): 366 nm | absorption maximum (in OCCOCCO): 367 nm | absorption maximum (in c1ccncc1): 368 nm

absorption maximum (in ClCCl): 315.85 nm
SMILES: C=CCN(CC=C)c1ccc(-c2cc(-c3ccc(N(CC=C)CC=C)cc3)cc(-c3ccc(N(CC=C)CC=C)cc3)c2)cc1

absorption maximum (in O): 660 nm
SMILES: COc1ccc2c(c1)CCC1=C(c3ccccc3)C3=C(c4ccc5cccc(O)c5n4)c4c(-c5ccccc5)c5c(n4[B-](F)(F)[N+]3=C12)-c1ccc(OC)cc1CC5

absorption maximum (in CC1CCCO1): 307 nm
SMILES: c1ccc2c(c1)-c1ccccc1C21c2ccccc2-c2ccncc21

absorption maximum (in C1CCOC1): 497 nm
SMILES: CCOC(=O)c1ccc(C2=CC3=c4cc(-c5ccc(C(=O)OCC)cc5)c5nc(C(F)(F)C(F)(F)C(F)(F)F)nc6c(-c7ccc(C(=O)OCC)cc7)cc(c4c65)C4=CC(c5ccc(C(=O)OCC)cc5)=C5N=C(C(F)(F)C(F)(F)C(F)(F)F)N=C2C5C43)cc1 (stereo not given)

absorption maximum (in C1CCOC1): 393 nm | absorption maximum (in CC#N): 391 nm | absorption maximum (in CS(C)=O): 400 nm | absorption maximum (in ClCCl): 394 nm
SMILES: C(=C\c1cnccn1)/c1ccc(N(c2ccccc2)c2ccccc2)cc1

absorption maximum (in CC#N): 397.05 nm | absorption maximum (in CCCCCC): 394.16 nm
SMILES: O=C1c2ccccc2-c2cnccc21

absorption maximum (in CC#N): 305 nm | absorption maximum (in CCCCCC): 375 nm | absorption maximum (in CO): 356 nm | absorption maximum (in ClC(Cl)Cl): 394 nm
SMILES: c1ccc2cc3cc(-c4cc(-c5nccs5)nc(-c5nccs5)c4)ccc3cc2c1

absorption maximum (in ClCCl): 310 nm
SMILES: COc1cc2c(cc1OC)C1=C[C@H](c3ccccc3)C3(C(C#N)=C(C#N)N1CC2)c1cc(Cl)ccc1-c1ccc(Cl)cc13

absorption maximum (in CC#N): 367 nm | absorption maximum (in CCCCCC): 344 nm | absorption maximum (in CO): 365 nm | absorption maximum (in ClC(Cl)Cl): 351 nm
SMILES: c1cc2ccc3cccc4c(-c5cc(-c6nccs6)nc(-c6nccs6)c5)cc(c1)c2c34

absorption maximum (in C1CCOC1): 354.46 nm
SMILES: CC(C)(C)c1ccc(-c2nc(-c3ccc(-n4c5ccccc5c5c6oc7ccccc7c6ccc54)cc3)nc(-c3ccc(C(C)(C)C)cc3)n2)cc1

absorption maximum (in ClCCl): 525 nm
SMILES: CCN1c2ccc(C3=CC(c4ccccc4)=[O+][B-](F)(F)O3)cc2Sc2cc(C3=CC(c4ccccc4)=[O+][B-](F)(F)O3)ccc21

absorption maximum (in C1CCOC1): 382 nm
SMILES: CCCCCCC1(CCCCCC)c2cc(-c3nc(-c4ccc5c(c4)C(CCCCCC)(CCCCCC)c4cc(-n6c7ccc(C(C)(C)C)cc7c7cc(C(C)(C)C)ccc76)ccc4-5)nc(-c4ccc5c(c4)C(CCCCCC)(CCCCCC)c4cc(-n6c7ccc(C(C)(C)C)cc7c7cc(C(C)(C)C)ccc76)ccc4-5)n3)ccc2-c2ccc(-n3c4ccc(C(C)(C)C)cc4c4cc(C(C)(C)C)ccc43)cc21

absorption maximum (in O): 400 nm
SMILES: Clc1ccc2cc3cccc[n+]3cc2c1

absorption maximum (in CS(C)=O): 318 nm
SMILES: Nc1ccc2c(c1)NC(=O)CC(=O)N2

absorption maximum (in ClCCl): 312 nm
SMILES: C(=C\c1cc(/C=C/c2ccccc2)nc(/C=C/c2ccccc2)n1)/c1ccccc1

absorption maximum (in CCO): 433 nm
SMILES: Nc1cc2nc3cc(F)c(F)cc3nc2cc1N
